The test system of experiment [1] is Neuroblastoma IMR-32. Put plainly: In vitro cytotoxicity (sulforhodamine B) against human cancer cell lines, Neuroblastoma IMR-32. Type of experiment: cell-based. Conditions: read-out: % GROWTH INHIBITION Neuroblastoma IMR-32; for inhibition at 50 µM: Conc 5 × 10^−5 M, 48 hours. The method, then:
(§1) The human cancer cell lines procured from National Cancer Institute, Frederick, U.S.A., were used in present study. Cells were grown in tissue culture flasks in complete growth medium (RPMI-1640 medium with 2 mM glutamine, 100 μg/mL streptomycin, pH 7.4, sterilized by filtration and supplemented with 10% fetal bovine serum and 100 units/ml penicillin before use) at 37° C. in an atmosphere of 5% CO2 and 90% relative humidity in a carbon dioxide incubator. The cells at subconfluent stage were harvested from the flask by treatment with trypsin (0.05% in PBS containing 0.02% EDTA) for determination of cytotoxicity. The cell suspension of the required cell density was prepared in complete growth medium with gentamycin (50 μg/mL) for determination of cytotoxicity.
(§2) Stock solutions of 2×10^−2M of test materials were prepared in DMSO. The stock solutions were serially diluted with complete growth medium containing 50 μg/ml of gentamycin to obtain working test solution of 2×10^−5M to obtain final concentration of 1×10^−5 M respectively.
(§3) In vitro cytotoxicity against human cancer cell lines was determined (Monks of al., J. Natl. Cancer Inst. 1991, 83, 757-766). The 100 μL of cell suspension was added to each well of the 96-well tissue culture plate. The cells were incubated for 24 hours (at 37° C. in an atmosphere of 5% CO2 and 90% relative humidity in a carbon dioxide incubator). Test materials in complete growth medium (100 μL) were added after 24 hours incubation to the wells containing cells. The plates were further incubated for 48 hours in a carbon dioxide incubator after addition of test material. The cell growth was stopped by gently layering trichloroacetic acid (50 μL, 50% w/v) on top of the medium in all the wells. The plates were incubated at 4° C. for one hour to fix the cells attached to the bottom of the wells. The liquid of all the wells was then gently decanted and discarded. The plates were washed five times with distilled water and air-dried. Cell growth was measured by staining with sulforhodamine B dye (Skehan et al., J. Natl. Cancer Inst. 1990, 82, 1107-1112). The adsorbed dye was dissolved in Tris-Buffer (100 μL, 0.01M, pH 10.4) and plates were gently stirred for 10 minutes on a mechanical stirrer. The optical density (OD) was recorded on ELISA reader at 540 nm.
(§4) The cell growth was calculated by subtracting mean OD value of respective blank from the mean OD value of experimental set. Percent growth in presence of test material was calculated considering the growth in absence of any test material as 100% and in turn percent growth inhibition in presence of test material was calculated. Suitable blank, controls and positive controls were included in the study.

The subject of experiment [2] is Prostrate PC-3. Put plainly: In vitro cytotoxicity (sulforhodamine B) against human cancer cell lines, Prostrate PC-3. The format is cell-based. The settings on record: read-out: % GROWTH INHIBITION Prostrate PC-3; for inhibition at 50 µM: Conc 5 × 10^−5 M, 48 hours. As for the experimental part:
as §1, §2, §3, §4

Experiment [3] deals with Colon Colo-205. Put plainly: In vitro cytotoxicity (sulforhodamine B) against human cancer cell lines, Colon Colo-205. The format is cell-based. The settings on record: read-out: % GROWTH INHIBITION Colon Colo-205; for inhibition at 50 µM: Conc 5 × 10^−5 M, 48 hours. As for the experimental part:
as §1, §2, §3, §4

Experiment [4] concerns Breast MCF-7. Put plainly: In vitro cytotoxicity (sulforhodamine B) against human cancer cell lines, Breast MCF-7. Type of experiment: cell-based. The settings on record: read-out: % GROWTH INHIBITION Breast MCF-7; for inhibition at 50 µM: MCF7, Conc 5 × 10^−5 M, 48 hours. The method, then:
as §1, §2, §3, §4

Experiment [5] relates to Ovary IGR-OV-1. Put plainly: In vitro cytotoxicity (sulforhodamine B) against human cancer cell lines, Ovary IGR-OV-1. The format is cell-based. The settings on record: IGROV-1, Conc 5 × 10^−5 M, 48 hours, read-out: % GROWTH INHIBITION Ovary IGR-OV-1. The method, then:
as §1, §2, §3, §4

The test system of experiment [6] is Lung A-549. Put plainly: In vitro cytotoxicity (sulforhodamine B) against human cancer cell lines, Lung A-549. Conditions: read-out: % GROWTH INHIBITION Lung A-549; for inhibition at 50 µM: A549, Conc 5 × 10^−5 M, 48 hours. The format is cell-based. As for the experimental part: as §1, §2, §3, §4
Experiment [7] has as its system Prostrate DU-145. Put plainly: In vitro cytotoxicity (sulforhodamine B) against human cancer cell lines, Prostrate DU-145. The format is cell-based. The settings on record: read-out: % GROWTH INHIBITION Prostrate DU-145; for inhibition at 50 µM: Conc 5 × 10^−5 M, 48 hours. The method, then: as §1, §2, §3, §4
Experiment [8] concerns P388 leukemia. Conditions: NCI Report on NSC 369397, 25 Oct. 1983; cited from earlier work.
For experiment [9], the system named is Ehrlich ascites tumor (EAT) cells. Conditions: MTT assay, read-out: IC50 (drug concentration causing 50% growth inhibition of the tumor cells); cited from earlier work.
Experiment [10] concerns cell line panels consisting of 60 lines. Conditions: nine disease-related subpanels; cited from earlier work.
[11] abbreviates: Conc 1 × 10^−5 M, positive control.

The values below come from patent US8841466B2, “Series of artemisinin derivatives and process for preparation thereof” (Council of Scientific & Industrial Research, priority 2010, dated 2014).

As a reminder, the inhibition is the share of the control response that was lost under treatment. On to `C=C(C#N)[C@H](O)C[C@H]1O[C@@H]2O[C@]3(C)CC[C@H]4[C@H](C)CC[C@@H]([C@H]1C)[C@@]24OO3` (single isomer, unassigned) [Compound 3b], for which the inhibition at 50 µM in experiment [1] is 48%; in experiment [2], 65%; in [3], 56%; in experiment [4], 46%; in experiment [5], 42%; in experiment [6] it was 66%. Besides, the inhibition at 50 µM in experiment [7] stood at 46%.
As to `C=C(C#N)[C@@H](O)C[C@H]1O[C@@H]2O[C@]3(C)CC[C@H]4[C@H](C)CC[C@@H]([C@H]1C)[C@@]24OO3` (single isomer, unassigned) [Compound 3b′], the inhibition at 50 µM in [1] came out at 62%; in experiment [2] it was 78%; in experiment [3], 75%; in experiment [4] it was 55%; in experiment [5], 56%; in [6] it was 77%. Also, the inhibition at 50 µM in experiment [7] was 60%.
As to `O=c1[nH]cc(F)c(=O)[nH]1` [5-Fluorouracil, reference compound], in experiment [3] (Conc 2 × 10^−5 M, positive control), the inhibition at 20 µM was 54%.
As to `COc1cccc2c1C(=O)c1c(O)c3c(c(O)c1C2=O)C[C@@](O)(C(=O)CO)C[C@@H]3O[C@H]1C[C@H](N)[C@H](O)[C@H](C)O1` [Adriamycin, reference compound], the inhibition at 1 µM was 70% in [1] (Conc 1 × 10^−6 M, positive control) and 72% in experiment [4] (MCF7, Conc 1 × 10^−6 M, positive control).
With `C[C@@H]1CC[C@H]2[C@@H](C)C(=O)O[C@@H]3O[C@@]4(C)CC[C@@H]1[C@]32OO4` [Artemisinin, artemisinin], the inhibition at 50 µM is 23% in experiment [1]; 22% in experiment [2]; 40% in experiment [3]; 34% in experiment [4]; 26% in experiment [5]; 29% in experiment [6]. In addition, in experiment [7], the inhibition at 50 µM stood at 38%. In experiment [8], the “activity against P388 leukemia” value was “inactive”. The IC50 in experiment [9] was 29.8 µM. Also, the “anticancer activity on 60 cell line panels” value in [10] is “very little anticancer activity”.
As for `C=C(C(=O)OC)[C@H](O)C[C@H]1O[C@@H]2O[C@]3(C)CC[C@H]4[C@H](C)CC[C@@H]([C@H]1C)[C@@]24OO3` [Compound 3a], the inhibition at 50 µM turned out to be 56% in [1], 63% in [5] and 70% in [6].
Regarding `C=C(C(C)=O)[C@H](O)C[C@H]1O[C@@H]2O[C@]3(C)CC[C@H]4[C@H](C)CC[C@@H]([C@H]1C)[C@@]24OO3` [Compound 3c], the inhibition at 50 µM in experiment [1] was 79%; in [2] it was 81%; in [3], 100%; in experiment [4] it was 66%; in experiment [5] it was 33%; in [6], 85%. The inhibition at 50 µM in experiment [7] was 73%.
Regarding `C[C@H]1[C@@H](C[C@@H](O)C2=CCCCC2=O)O[C@@H]2O[C@]3(C)CC[C@H]4[C@H](C)CC[C@@H]1[C@@]24OO3` [Compound 3d], the inhibition at 50 µM was 72% in [1]; 68% in [2]; 63% in [3]; 43% in [4]; 60% in experiment [5]; 66% in experiment [6]. The inhibition at 50 µM in experiment [7] came to 52%.
For `CO[C@@]12[C@H](COC(N)=O)C3=C(C(=O)C(C)=C(N)C3=O)N1C[C@@H]1N[C@@H]12` [Mitomycin, reference compound], the inhibition at 10 µM in experiment [2] (setting [11]) was found to be 54%; in [7] (setting [11]), 92%.
With `CC(=O)O[C@H]1C(=O)[C@@]2(C)[C@H]([C@H](OC(=O)c3ccccc3)[C@]3(O)C[C@H](OC(=O)[C@H](O)[C@@H](NC(=O)c4ccccc4)c4ccccc4)C(C)=C1C3(C)C)[C@]1(OC(C)=O)CO[C@@H]1C[C@@H]2O` [Paclitaxel, reference compound], the inhibition at 10 µM in experiment [6] (A549, Conc 1 × 10^−5 M, positive control) is 69%.
